How the values were obtained:
U2OS cells = test: cytotoxicity, CellTiter-Glo Luminescent Cell Viability Assay; conditions: for cytotoxicity profile (normalized cell viability): 250 nM to 50 µM, 36 h (Figure 7)
[1] = tested on: MARV VP40 with the late domain motif of Ebola virus (PTAPPEY) VP40 (VP40ELD); format: cell-based, Marburg virus
[2] = tested on: GFP expressing HAd-C5 vector; test: fluorescent plaque forming assay (adenoviral propagation / virus spread); format: cell-based, adenovirus
HAd-C5 = test: adenovirus genome nuclear import (nuclear protein VII staining, confocal microscopy); format: cell-based; conditions: U2OS cells, 5 µM, 2500 pp/cell, 2 hours post-infection, vs DMSO
HAd-C5-wt virus = test: adenoviral early gene expression by real-time PCR; format: cell-based, adenovirus; conditions: U2OS cells, 5 µM, 4 hours post-infection, vs vehicle

Clc1ccc(CO/N=C(\Cn2ccnc2)c2ccc(Cl)cc2Cl)c(Cl)c1 [Oxiconazole]
cytotoxicity profile (normalized cell viability) (U2OS cells): cytotoxicity profiles similar to Sulconazole

Clc1ccc(CSC(Cn2ccnc2)c2ccc(Cl)cc2Cl)cc1 (stereo not shown) [Sulconazole]
reduction of MARV titers (TCID50) (MARV): 1-2 log | cytotoxicity (U2OS cells; 5 µM, 36 h): not cytotoxic | VP40 VLP release [1]: inhibit | plaque size (adenovirus virus propagation) ([2]; 5 µM, HEK293 cells, 0.1 pp/cell HAd-C5-GFP, six days after infection, vs DMSO (Example 3, Figure 1, P<0.0001)): significant reduced plaque size | nuclear accumulation of viral genomes (protein VII) (HAd-C5): significantly reduces the nuclear accumulation of viral genomes | early viral genes expression (E1A, E1B, E4 orf6/7) (HAd-C5-wt virus): significant reduction of early viral genes expression

Clc1ccc(-c2cc(-n3ccnc3)c(-c3ccc(Cl)cc3Cl)o2)c(Cl)c1 [CT2-13, 1-(2,5-bis(2,4-Dichlorophenyl)furan-3-yl)-1H-imidazole]
cytotoxicity profile (normalized cell viability) (U2OS cells): cytotoxicity profiles similar to Sulconazole

Clc1ccc(-c2ccc(Cn3ccnc3)c(-c3ccc(Cl)cc3Cl)c2)c(Cl)c1 [CT2-10, 1-((2,2",4,4"-Tetrachloro-[1,1':3',1"-terphenyl]-4'-yl)methyl)-1H-imidazole]
cytotoxicity profile (normalized cell viability) (U2OS cells): cytotoxicity profiles similar to Sulconazole

Nc1ccn(C[C@@H](CO)OCP(=O)(O)O)c(=O)n1 [Cidofovir]
inhibition of adenoviral propagation (plaque size) ([2]; 10 µM and 20 µM (Example 8, Figure 6)): did not show significant inhibition

Source: patent EP3381905A1, “NOVEL ANTIVIRAL COMPOUNDS” (priority 2017, dated 2018)
